Legend:
Spodoptera litura [1] = test: Insecticidal effect for Spodoptera litura by spraying treatment to host crop (Test Example 2); format: in vivo; conditions: 100 ppm, sprayed on soybean, third-instar larvae of Spodoptera litura, fifth day after; for pest or weed control at 100 ppm: 120 h, read-out: rate of dead pests (%)
Description: Insecticidal Effect for Spodoptera litura by Spraying Treatment to Host Crop
A pesticidal solution, which was prepared by dissolving 5 mg of test compound (represented by the compound Nos. in the above Examples) in 0.5-ml of acetone containing Tween 20 (trade name) and then diluting it to the prescribed concentration (100 ppm) with Dain (trade name, sticker) water diluted 5000-fold, was sprayed on a soybean whose primary leaves had developed completely with spray gun in the amounts wherein the pesticidal solution dripped. After drying the pesticidal solution, two primary leaves were cut off. The leaves were put into an ice cream cup (180 ml), and ten third-instar larvae of Spodoptera litura were set free therein. The cup was left in a temperature-controlled breeding room (25° C.). On the fifth day after, the number of surviving Spodoptera litura was examined. The rate of dead pests was calculated by the following formula. rate of dead pests (%)=(number of dead pests/number of test pests)×100

Spodoptera litura [2] = test: Insecticidal effect for Spodoptera litura by immersion treatment of host crop root (Test Example 4); format: in vivo; conditions: 25 ppm, soybean root immersion 5 days, second-instar larvae of Spodoptera litura, fifth day after; for pest or weed control at 25 ppm: 120 h, read-out: rate of dead pests (%)
Description: Insecticidal Effect for Spodoptera litura by Immersion Treatment of Host Crop Root Roots of primary leaves developing stage soybean was washed with tap water to remove soil, and then immersed in a pesticidal solution which was prepared by dissolving 5 mg of test compound (represented by the compound Nos. in the above Examples) in 0.5 ml of acetone containing Tween 20 ([…]) with ion-exchange water, and which was filled in a light-shielded Erlenmeyer flask (100 ml). On the fifth day after immersion of root, two primary leaves were cut off, and the leaves were put into an ice cream cup (180 ml). Ten second-instar larvae of Spodoptera litura were set free therein, and the cup was left in a temperature-controlled breeding room (25° C.). On the fifth day after, the number of surviving Spodoptera litura was examined. The rate of dead pests was calculated by the following formula. rate of dead pests (%)=(number of dead pests/number of test pests)×100

Structure (SMILES) | rate of dead pests (%) (Spodoptera litura [1]) | rate of dead pests (%) (Spodoptera litura [2]) | pest or weed control at 100 ppm (Spodoptera litura [1]) [%] | pest or weed control at 25 ppm (Spodoptera litura [2]) [%]
O=C(c1c(F)cccc1F)N1COCN(c2ccc(SC(F)(F)F)cc2Cl)C1=O [I-74] | 100 | 100 | – | –
O=C(c1c(F)cccc1F)N1COCN(c2ccc([S+]([O-])C(F)(F)F)c(Cl)c2Cl)C1=O (centres unmarked) [I-93] | 100 | 100 | – | –
O=C(c1c(F)cccc1F)N1COCN(c2cc(Cl)c(SC(F)(F)F)cc2F)C1=O [I-98] | 100 | 95 | – | –
O=C(c1c(F)cccc1F)N1COCN(c2c(F)cc(SC(F)(F)F)cc2Cl)C1=O [I-101] | 100 | 100 | – | –
O=C(c1c(F)cccc1F)N1COCN(c2c(F)cc(SC(F)(F)F)cc2F)C1=O [I-104] | 100 | 100 | – | –
Cc1c(N2COCN(C(=O)c3c(F)cccc3F)C2=O)ccc(SC(F)(F)F)c1Cl [I-122] | 100 | 95 | – | –
O=C(c1c(F)cccc1F)N1COCN(c2ccc(SC(F)(F)C(F)(F)F)cc2F)C1=O [I-128, 3-(2,6-difluorobenzoyl)-5-[2-fluoro-4-(1,1,2,2,2-pentafluoroethylthio)phenyl]tetrahydro-4H-1,3,5-oxadiazin-4-one] | – | – | 100 | 100
O=C(c1c(F)cccc1Cl)N1COCN(c2ccc([S+]([O-])C(F)F)cc2F)C1=O (centres unmarked) [I-219] | 100 | 100 | – | –
O=C(c1c(F)cccc1Cl)N1COCN(c2ccc([S+]([O-])C(F)(F)F)cc2Cl)C1=O (centres unmarked) [I-252] | 100 | 100 | – | –
O=C(c1c(F)cccc1Cl)N1COCN(c2ccc([S+]([O-])C(F)(F)F)c(Cl)c2)C1=O (centres unmarked) [I-255] | 100 | 100 | – | –
O=C(c1c(F)cccc1Cl)N1COCN(c2cc(Cl)c(SC(F)(F)F)cc2F)C1=O [I-275] | 100 | 100 | – | –
O=C(c1c(F)cccc1Cl)N1COCN(c2c(F)cc(SC(F)(F)F)cc2Cl)C1=O [I-278] | 100 | 90 | – | –
O=C(c1c(F)cccc1Cl)N1COCN(c2c(F)cc(SC(F)(F)F)cc2F)C1=O [I-281] | 100 | 100 | – | –
O=C(c1c(F)cccc1Cl)N1COCN(c2cc(F)c([S+]([O-])C(F)(F)F)cc2F)C1=O (centres unmarked) [I-288] | 100 | 100 | – | –
O=C(c1c(F)cccc1Cl)N1COCN(c2ccc([S+]([O-])C(F)(F)C(F)(F)F)cc2F)C1=O (centres unmarked) [I-306] | 100 | 100 | – | –
O=C(c1c(F)cccc1Cl)N1COCN(c2ccc(S(=O)(=O)C(F)(F)C(F)(F)F)cc2F)C1=O [I-307] | 100 | 90 | – | –
O=C(c1c(Cl)cccc1Cl)N1COCN(c2ccc([S+]([O-])C(F)(F)F)cc2F)C1=O (centres unmarked) [I-399] | 100 | 100 | – | –
O=C(c1c(F)cccc1F)N1C[S+]([O-])CN(c2cc(Cl)c(F)c(Cl)c2F)C1=O (centres unmarked) [II-11] | 100 | 100 | – | –
O=C(c1c(F)cccc1F)N1CN(c2ccccc2)CN(c2ccc(Cl)cc2)C1=O [III-2, 1-(4-chlorophenyl)-3-(2,6-difluorobenzoyl)-5-phenyltetrahydro-1,3,5-triazin-2(1H)-one] | – | – | 100 | 90
C#CCN1CN(C(=O)c2c(F)cccc2F)C(=O)N(c2ccc(Cl)cc2)C1 [III-8] | 100 | 100 | – | –
CS(=O)(=O)N1CN(C(=O)c2c(F)cccc2F)C(=O)N(c2ccc(Cl)cc2)C1 [III-12, 1-(4-chlorophenyl)-3-(2,6-difluorobenzoyl)-5-methanesulfonyltetrahydro-1,3,5-triazin-2(1H)-one] | – | – | 100 | 100
COC(=O)N1CN(C(=O)c2c(F)cccc2F)C(=O)N(c2ccc(Cl)cc2)C1 [III-13] | 100 | 100 | – | –

From US20050159599A1, “Cyclic compound, process for producing the same, and pest control agent” (priority 2002, published 2005)
